Experimental findings from US20170369474A1, “COMPOUNDS, COMPOSITIONS AND METHODS OF USE” (Aquinnah Pharmaceuticals, Inc., priority 2014, published 2017) are described below.

The structures appear in SMILES notation. Read-outs that look alike come from different tables or passages of the source.

The test system of assay [1] is TDP-43 inclusions in PC12 cells stably expressing wild type (WT) TDP-43-GFP. Kind of assay: Dose response assay for TDP-43 inhibition. Format: cell-based. The conditions noted are these: Rattus norvegicus, PC-12. The method, then:
Exemplary compounds of the invention were evaluated for efficacy in inhibiting TDP-43 inclusions using a dose response assay. Briefly, PC12 cells stably expressing wild type (WT) TDP-43-GFP were stressed with 15 μM to induce TDP-43 inclusions. The cells were then treated with exemplary compounds of the invention and the inhibitory effect on TDP-43 inclusions was observed using fluorescent microscopy. The ratio of cells with TDP-43 inclusions was calculated based on the total number of cells with detectable GFP expression. A 12-point dose response curve was generated, and the IC50 for each compound tested was determined.

Assay [2] deals with Embryonic mouse hippocampal neurons transduced with TDP-43 EGFP. The assay can be described thus: Neuroprotection assay (total dendrite length). Format: cell-based. The note with it: compound at 10 times the IC50 value, treated DIV7, 9, 11; fixed DIV12. The method, then:
CMF dissection buffer: 1× Hank's balanced salt solution (Ca—/Mg, 500 mL) and 10 mM HEPES, pH 7.25-7.3 (IM stock, 5 mL)
Plating media: MEM (Earle salts+/Glutamine, 95 mL), FBS (to 2.5%, 2.5 mL), Pen/Strep (1×, 1 mL), glutamine (1×, 1 mL), and D-glucose (0.6% w/v, 0.6 g)
Feeding media: neurobasal media (96 mL), B27 supplement (2 mL), Pen/Strep (1 mL), and glutamine (1 mL).
Embryonic mouse hippocampal neurons were cultured according to Kaech, S. and Banker, G. (2006) Nat Protoc 1:2406-2415 and dissected at […] from CD1 mice. Once all the hippocampi were removed, they were placed in a 15 mL conical Falcon tube on ice and brought to a final volume of 4.5 mL with CMF dissection buffer. 0.5 mL of a 2.5% trypsin-EDTA solution was then added, and the mixture was incubated at 37° C. for 15 min. […] Neurons were traced and analyzed using NeuronJ.
Results of the neuroprotection assay for exemplary compounds of the invention are summarized in Table 1, wherein A represents an average rescue total dendrite length of >150%; B represents an average rescue total dendrite length of 100-149%; C represents an average rescue total dendrite length of 50-99%; D represents an average rescue total dendrite length of 0-49%; E represents an average rescue total dendrite length of <0%; and ND signifies that the average rescue total dendrite length was not determined.

Assay [3] deals with TDP-43 aggregates in motor neurons generated from ALS patient-derived iPSCs. Kind of assay: Reduction of insoluble TDP-43 levels (immunoblot). Format: cell-based. The note with it: 2 μM for 48 hours. On the procedure: The cells were differentiated into motor neurons for 22 days, then treated with 2 μM of Compounds 100, 101, and Compound 7 for 48 hours. The cells were lysed and TDP-43 aggregate formation was detected by immunoblot.
(In western blotting, separated proteins are transferred to a membrane and probed.)

Assay [4] deals with C. elegans expressing A315T hTDP-43. Kind of assay: Neuroprotection of C. elegans. The conditions noted are these: 34.8 μM; A315T transgenic animals, second day of adulthood. Format: in vivo. The method, then: Age synchronized C. elegans were cultured with 34.8 μM Compound 100 and the effect on the animal's movement and motor neurons were investigated. FIGS. 2A-2C show a comparison between the crawling speed of WT and Tg nematodes expressing wt (FIG. 2A), human wt (FIG. 2B), and A315T hTDP-43 (FIG. 2C) on the second day of adulthood.

The IC50 is the midpoint of a concentration-inhibition curve. On to `Cc1ccc(Cl)cc1NS(=O)(=O)c1c(C(=O)N2CCCC2)c(C)n(C)c1C` [Compound 100, N-(5-chloro-2-methylphenyl)-1,2,5-trimethyl-4-(pyrrolidine-1-carbonyl)-1H-pyrrole-3-sulfonamide], for which the IC50 in assay [1] (inhibition of TDP-43 inclusions, PC12 cells WT TDP-43-GFP, 12-point dose response, read-out: IC50) was 101 to 250 nM. In assay [2], the “Average Additive Dendrite Length (%)” value was “B (B represents an average rescue total dendrite length of 100-149%)”. The “Reduction of TDP-43 aggregates in the sarkosyl insoluble fraction” value in assay [3] is “reduced dimeric and multimeric TDP-43 aggregates”. The “Neuroprotective effect on motor neurons” value in assay [4] is “neuroprotective effect”.
For the compound `CCc1cccc(C)c1NS(=O)(=O)c1c(C(=O)N2CCCC2)c(C)n(C)c1C` [Compound 101, N-(2-ethyl-6-methylphenyl)-1,2,5-trimethyl-4-(pyrrolidine-1-carbonyl)-1H-pyrrole-3-sulfonamide], the IC50 in assay [1] lay in the range of 101 to 250 nM. In addition, the “Average Additive Dendrite Length (%)” value in assay [2] is given as “A (A represents an average rescue total dendrite length of >150%)”. For the same compound, the “Reduction of TDP-43 aggregates in the sarkosyl insoluble fraction” value in assay [3] was “reduced dimeric and multimeric TDP-43 aggregates”.
